The values that follow come from publication PMC4554999 (Bioorganic & medicinal chemistry, 2015).

Assay [1] concerns nicotine-induced antinociception. The assay is described as follows: Antagonism of nicotine-induced antinociception, tail-flick test. It is filed as in vivo, mouse. The following applies: mice. (In general: Hot-plate and tail-flick tests time the reaction to a heat stimulus.)
Assay [2] addresses rat α3β4-nAChR (Rattus norvegicus, UniProt P04757+P12392). The assay is described as follows: Electrophysiology. The assay is classed as cell-based. The following applies: 100 μM compound; rat receptor in Xenopus oocytes.
For assay [3], the target named is α4β2*-nAChRs (Rattus norvegicus, UniProt P09483+P12390). The assay can be described thus: biochemical. It is filed as binding.
Chain of α4β2*-nAChRs (P09483 31-630): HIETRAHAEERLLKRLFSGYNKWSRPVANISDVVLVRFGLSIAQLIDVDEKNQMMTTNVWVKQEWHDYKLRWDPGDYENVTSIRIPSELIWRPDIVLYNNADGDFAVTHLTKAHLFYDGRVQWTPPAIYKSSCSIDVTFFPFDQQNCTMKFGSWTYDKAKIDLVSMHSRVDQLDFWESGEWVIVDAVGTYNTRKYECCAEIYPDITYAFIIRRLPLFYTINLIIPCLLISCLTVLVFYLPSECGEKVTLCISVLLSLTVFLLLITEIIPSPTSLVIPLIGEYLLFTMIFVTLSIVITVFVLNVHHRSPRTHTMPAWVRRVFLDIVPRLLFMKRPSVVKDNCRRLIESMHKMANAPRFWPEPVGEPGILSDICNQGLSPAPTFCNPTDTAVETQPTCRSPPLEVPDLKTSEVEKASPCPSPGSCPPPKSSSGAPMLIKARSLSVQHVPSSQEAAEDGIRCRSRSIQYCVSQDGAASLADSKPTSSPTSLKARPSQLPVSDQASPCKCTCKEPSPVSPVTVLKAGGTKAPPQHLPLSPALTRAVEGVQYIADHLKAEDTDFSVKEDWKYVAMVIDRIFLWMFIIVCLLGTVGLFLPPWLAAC
Chain of α4β2*-nAChRs (P12390 25-500): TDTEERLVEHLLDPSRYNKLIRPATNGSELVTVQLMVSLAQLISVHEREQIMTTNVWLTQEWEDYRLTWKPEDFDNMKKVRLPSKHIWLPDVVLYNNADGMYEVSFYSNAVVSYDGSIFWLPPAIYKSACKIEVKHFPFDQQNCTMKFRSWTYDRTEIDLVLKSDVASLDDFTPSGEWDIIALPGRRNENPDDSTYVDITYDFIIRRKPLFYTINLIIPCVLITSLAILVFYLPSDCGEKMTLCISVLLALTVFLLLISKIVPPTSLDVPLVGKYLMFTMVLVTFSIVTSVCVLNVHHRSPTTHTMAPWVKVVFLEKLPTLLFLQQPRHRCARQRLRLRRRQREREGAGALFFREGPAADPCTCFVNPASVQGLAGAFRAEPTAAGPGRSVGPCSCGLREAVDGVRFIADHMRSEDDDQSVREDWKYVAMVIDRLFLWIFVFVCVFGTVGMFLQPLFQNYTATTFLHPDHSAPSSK
Assay [4] relates to mice. The following applies: agonist antinociception, ref [5]; cited from earlier work.
Assay [5] deals with mice. The note with it: agonist antinociception, ref [5]; cited from earlier work. The source holds these as a separate data set.
The subject of assay [6] is mice. The following applies: ref [5]; cited from earlier work.
The test system of assay [7] is mice. The note with it: Table 1, head line above prints AD50 (μg/kg), ref [5]; cited from earlier work.
Assay [8] deals with T1, rat α7-nAChR (Rattus norvegicus, UniProt Q05941). It is filed as cell-based.
T1 sequence (Q05941 23-502): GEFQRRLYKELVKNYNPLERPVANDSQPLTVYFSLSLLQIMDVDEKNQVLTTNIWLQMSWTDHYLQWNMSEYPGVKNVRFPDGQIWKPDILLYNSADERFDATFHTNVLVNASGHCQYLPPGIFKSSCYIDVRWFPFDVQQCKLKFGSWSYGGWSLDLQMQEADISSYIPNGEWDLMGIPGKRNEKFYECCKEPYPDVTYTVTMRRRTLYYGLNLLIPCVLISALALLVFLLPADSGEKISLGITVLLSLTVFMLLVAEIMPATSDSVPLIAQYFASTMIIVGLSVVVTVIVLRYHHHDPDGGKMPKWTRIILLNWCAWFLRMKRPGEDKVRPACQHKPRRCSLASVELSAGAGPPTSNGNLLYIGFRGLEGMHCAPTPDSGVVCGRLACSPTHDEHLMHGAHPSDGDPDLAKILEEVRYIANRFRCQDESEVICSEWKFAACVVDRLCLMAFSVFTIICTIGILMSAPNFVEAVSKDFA
Assay [9] addresses T1, rat α7-nAChR. The assay is described as follows: cell-based. The following applies: read-out: antagonist activity at α7-nAChRs, % inhibition.

Read-outs that look alike come from different tables or passages of the source.

Chain of rat α3β4-nAChR (P04757 26-499): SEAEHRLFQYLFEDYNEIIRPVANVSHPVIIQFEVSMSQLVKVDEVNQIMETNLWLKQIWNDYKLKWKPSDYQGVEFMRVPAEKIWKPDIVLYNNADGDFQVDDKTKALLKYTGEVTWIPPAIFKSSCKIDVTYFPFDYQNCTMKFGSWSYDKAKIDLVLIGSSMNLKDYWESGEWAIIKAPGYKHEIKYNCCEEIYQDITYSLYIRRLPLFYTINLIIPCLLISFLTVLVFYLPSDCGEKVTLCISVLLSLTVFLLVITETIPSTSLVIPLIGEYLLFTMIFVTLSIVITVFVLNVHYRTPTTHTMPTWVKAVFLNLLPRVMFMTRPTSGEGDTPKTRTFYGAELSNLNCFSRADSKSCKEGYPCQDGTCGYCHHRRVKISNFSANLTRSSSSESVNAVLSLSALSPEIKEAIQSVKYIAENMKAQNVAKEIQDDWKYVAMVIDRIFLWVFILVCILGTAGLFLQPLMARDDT
Chain of rat α3β4-nAChR (P12392 21-495): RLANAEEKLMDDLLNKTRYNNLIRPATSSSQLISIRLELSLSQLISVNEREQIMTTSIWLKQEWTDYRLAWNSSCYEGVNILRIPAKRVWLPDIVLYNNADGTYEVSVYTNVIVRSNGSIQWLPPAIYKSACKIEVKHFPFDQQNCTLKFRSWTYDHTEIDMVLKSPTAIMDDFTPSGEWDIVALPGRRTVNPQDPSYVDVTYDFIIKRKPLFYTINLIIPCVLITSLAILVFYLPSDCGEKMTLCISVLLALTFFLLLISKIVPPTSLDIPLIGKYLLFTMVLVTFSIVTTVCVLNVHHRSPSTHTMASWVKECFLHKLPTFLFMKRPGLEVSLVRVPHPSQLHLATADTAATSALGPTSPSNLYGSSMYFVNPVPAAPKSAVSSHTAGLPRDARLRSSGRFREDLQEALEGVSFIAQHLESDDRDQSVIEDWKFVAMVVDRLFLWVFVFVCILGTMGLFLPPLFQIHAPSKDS

Take `Nc1ccc(-c2cncc([C@H]3C[C@H]4CC[C@H]3N4)c2)cn1` [Compound 6d, 2-exo-[3′-(2″-Aminopyridin-5″-yl)-5′-pyridnyl]-7-azabicyclo[2.2.1]heptane]: the “AD50 Tail-Flick” value in [1] was 1.5 (0.5–4.1) μg/kg. Further, in assay [2], the “Agonist Activity (% of max ACh at 100 μM) α3β4” value is given as “little or no agonist activity”. Regarding `c1cncc(-c2cncc([C@H]3C[C@H]4CC[C@H]3N4)c2)c1` [Compound 6a, 2-exo-[3′-(Pyridin-3″-yl)-5′-pyridnyl]-7-azabicyclo[2.2.1]heptane], in [3], the Ki (as a rule, the equilibrium dissociation constant of an inhibitor or competing ligand from its target) worked out at 0.12 nM. In assay [1], the “AD50 Tail-Flick” value is 0.68 (0.11–4) μg/kg. For `Clc1cc(-c2cncc([C@H]3C[C@H]4CC[C@H]3N4)c2)ccn1` [Compound 5c, 2-exo-[3′-(2-Chloropyridin-4-yl)-5′-pyridnyl]-7-azabicyclo[2.2.1]heptane], in [1], the “AD50 Tail-Flick” value is given as 110 (20–645) μg/kg. As for `CN1CCC[C@H]1c1cccnc1` [nicotine], in assay [4], the “ED50 Tail-Flick” value is 1.3 (0.5–1.8) mg/kg. Moreover, in [5], the “ED50 Hot-Plate” value is given as 0.65 (0.25–0.85) mg/kg. The “ED50 Hypothermia” value in [6] is listed as 1.0 (0.6–2.1) mg/kg. In addition, the “ED50 Spontaneous Activity” value in assay [7] is 0.5 (0.15–0.78) μg/kg. With `COc1ccc(-c2cncc([C@H]3C[C@H]4CC[C@H]3N4)c2)cn1` [Compound 6e, 2-exo-[3′-(2″-Methoxypyridin-5″-yl)-5′-pyridnyl]-7-azabicyclo[2.2.1]heptane], the “AD50 Tail-Flick” value in assay [1] is recorded as 0.5 (0.05–4.7) μg/kg. The “Agonist Activity (% of max ACh at 100 μM) α7” value in assay [8] (100 μM compound, rat receptor in Xenopus oocytes) is “little or no agonist activity”. Besides, in assay [9], the inhibition (usually the percentage by which the read-out fell short of the control) at 100 µM was over 80%. With `Clc1ccc(-c2cncc([C@H]3C[C@H]4CC[C@H]3N4)c2)cn1` [Compound 6c, 2-exo-[3′-(2″-Chloropyridin-5″-yl)-5′-pyridnyl]-7-azabicyclo[2.2.1]heptane], the “AD50 Tail-Flick” value in assay [1] is given as 0.5 (0.05–4.7) μg/kg. As for `Fc1ccc(-c2cncc([C@H]3C[C@H]4CC[C@H]3N4)c2)cn1` [Compound 6b, 2-exo-[3′-(2″-Fluoropyridin-5″-yl)-5′-pyridnyl]-7-azabicyclo[2.2.1]heptane], the “Agonist Activity (% of max ACh at 100 μM) α7” value in [8] is reported as “little or no agonist activity”. Take `Nc1cc(-c2cncc([C@H]3C[C@H]4CC[C@H]3N4)c2)ccn1` [Compound 5d, 2-exo-[3′-(2-Aminopyridin-4-yl)-5′-pyridnyl]-7-azabicyclo[2.2.1]heptane]: the “AD50 Tail-Flick” value in [1] was 1 (0.13–1.4) μg/kg. The “Agonist Activity (% of max ACh at 100 μM) α3β4” value in assay [2] is “little or no agonist activity”. For `c1cc(-c2cncc([C@H]3C[C@H]4CC[C@H]3N4)c2)ccn1` [Compound 5a, 2-exo-[3′-(Pyridin-4-yl)-5′-pyridnyl]-7-azabicyclo[2.2.1]heptane], the “AD50 Tail-Flick” value in assay [1] is 39 (4–63) μg/kg.

Take `COc1cc(-c2cncc([C@H]3C[C@H]4CC[C@H]3N4)c2)ccn1` [Compound 5e, 2-exo-[3′-(2-Methoxypyridin-4-yl)-5′-pyridnyl]-7-azabicyclo[2.2.1]heptane]: the “AD50 Tail-Flick” value in assay [1] is given as 0.3 (0.04–20) μg/kg.
